According to patent US9896512B2, “Antitumor peptide derived from a complementarity determining region of a humanized monoclonal antibody to NAP12B transporter” (Recepta Biopharma S.A., priority 2010, dated 2018):
Like-named read-outs stand apart in the source and are kept apart here. Non-standard residues stand in square brackets, D forms with d. Residues, ends and D or L forms follow the SMILES beside them. No end group written: not given here.

Key:
[1] = tested on: B16F10-Nex2 melanoma cells; experiment: In vivo protection against lung colonization (metastatic melanoma model); parameters: species or system C57B1/6 mice; conditions: 250 μg i.p. on days 1, 3, 5, 7, 9, 11; lungs after 22 days
Protocol: (§1) Details of the in vitro tumor cell growth, cytotoxicity tests, determination of viable cells and in vivo protection experiments with B16F10 cells in a mouse metastatic model are described in Polonelli et al. (PLoS One. 3(6):e2371, 2008) and Dobroff et al. (Translat. Onc., 3: 204-217, 2010).
Peptides RB9 and RB10 along with the apoptotic peptide A4H3, a true microantibody of cytotoxic anti-melanoma mAb (A4) (Dobroff et al., Translat. Onc., 3: 204-217, 2010), were tested for their protective effects against lung colonization by B16F10-Nex2 melanoma cells (2×105) injected intravenously in C57B1/6 mice (6 animals/group). Peptides were intraperitoneally administered (250 μg i.p.) on days 1, 3, 5, 7, 9, 11 after tumor cell challenge. Lungs of peptide-treated animals are shown in FIG. 5 after 22 days of tumor challenge. As noticed, peptide treatment was interrupted 10 days before animal sacrifice.
In vivo protection by peptides RB9 and RB10 (and A4H3 control) against lung colonization by B16F10-Nex2 melanoma cells (2×105) injected intravenously in C57B1/6 mice (6 animals/group) is shown in FIG. 6. The other 5 CDRs of RebMab200 (SEQ ID NOs: 7, 10, 11, 12, 13) were unprotective in vivo. Peptides were administered in the same way as described above, and the number of lung nodules was determined.

tumor cells [2] = experiment: Antitumor activity of RebMab 200 CDR peptides; type: cell-based
Description: as §1
Amidated RebMab 200 CDR H2 (SEQ ID NO: 7) shares up to sixteen (16) identical amino acids with similar H2 fragments from several murine antibodies of various specificities.

[3] = Peptide degradation by human plasma (HPLC / mass spectrum); type: in vitro ADME; conditions: human plasma, 37° C.
Protocol: Peptides have variable half lives in the plasma due to the proteolytic activity and the renal filtration, which are relevant aspects in the pharmacokinetics of drug candidates.
To analyze the peptide in HPLC and Mass Spectrum, an aliquot of 200 μL was transferred to a new Eppendorf tube and proteins were precipitated with 20 μL trifluoroacetic acid for 5 minutes at 4° C. After centrifugation for 10 minutes at 14,000 rpm, the supernatant was analyzed in an LC/ESI-MS (Waters).
Regarding assays for determining time-lapse plasma degradation of RB9 peptide, peptide degradation by human plasma was monitored in HPLC and Mass spectra every 30 minutes as described above (FIG. 12). About 50% RB9 was cleaved after 2 hours of incubation at 37° C.

tumor cells [4] = experiment: Cell adherence assay (detachment with trypsin/EDTA); type: cell-based
Protocol: At a lower dose, cells would be detached with trypsin/EDTA at rates inversely proportional to the peptide concentration. Conceivably, peptides RB9 and RB10 affected the cytoskeleton dynamics of cells, thus signaling increased cell adhesion.
B16F10-Nex2.1 cells (5×10^3) and U87-MG cells (1×10^4) were cultivated in 96-well plates and incubated with different concentrations of RB9 (SEQ ID NO: 8) and RB10 (SEQ ID NO: 9) from 0.01 to 1 mM (i.e., 0.01, 0.05, 0.1, 0.25, 0.7, 0.8 and 1 mM of RB9 and RB10 for B16F10-Nex 2.1 cells; and 0.25, 0.5, 0.75 and 1 mM of RB9 and RB10 for U87-MG cells). After 18 hours incubation, viable cells detached with trypsin/EDTA were counted using Trypan blue exclusion staining. All assays were performed in triplicate in two independent experiments.
SKBR3 cells (1×10^4) were cultivated in 96-well plates and incubated with RB9 (SEQ ID NO: 8) and RB10 (SEQ ID NO: 9). After 18 hours incubation, viable cells detached with trypsin/EDTA were counted using Trypan blue exclusion staining. Assays were performed in triplicate in two independent experiments. The A2058 human melanoma cells (1×10^4) were incubated for 4 hours at 37° C. in a humidified chamber with 5% CO2. Fresh media containing different peptide concentrations of RB9 and RB10 ranging from 0 to 1 mM (i.e., 0, 0.25, 0.5 and 1 mM) was added to the wells and incubated for 24 hours. The media was then aspirated, cells were detached with 30 μl/well of trypsin-EDTA for five minutes at 37° C. and viable cells were counted in a Neubauer chamber using Trypan blue. As shown in FIGS. 2A-2D, 50% of cells were trypsin-EDTA resistant at 630 and 610 μM RB9 and RB10, respectively.

[5] = tested on: melanoma B16F10-Nex2 cells; experiment: Alanine scanning series cell adhesion assay (MTT after trypsin-EDTA); type: cell-based, murine; conditions: 1 mM peptide, 24 hours
Protocol: The peptide RB10 (SEQ ID NO: 9) was engineered to replace each amino acid by alanine using Ala-scan methodology, and thus help evaluate the role of each amino acid on biological effect, specifically on the hyper-adherence observed with 1 mM peptide.
For this purpose, viable melanoma B16F10-Nex2 cells (1×10^4)/well were distributed on a 96-well culture plate and incubated for 4 hours. Fresh media containing 1 mM of the alanine-scanning series for RB10 was added and incubated for 24 hours. Treated cells were detached with 30 μl/well of trypsin-EDTA for five minutes at 37° C. and gently washed with PBS. Cells were incubated for 4 hours with 0.5 mg/mL of MTT [3-(4,5-Dimethylthiazol-2-yl)-2,5-diphenyltetrazolium bromide] in fresh media and the formazan crystals were solubilized adding 1 volume of a 10% SDS solution overnight. Intensity was measured using a plate reader at 570 nm. […] The 100% value for each peptide represented the treated cells that had not been trypsinized.

[6] = tested on: B16F10-Nex2 melanoma cells; experiment: Cell migration, wound healing assay; type: cell-based, murine; conditions: peptide 500 μM, 24 hours after wounding
Protocol: (§2) For the migration studies, 5×10^5 or 10^6 cells were distributed on 6-well plates and let them to adhere for 2 hours at 37° C./5% CO2. The culture medium was changed and the peptide was added at 500 μM overnight. The cell monolayer was “wounded” with a P1000 tip and incubated for 24 hours. Images of untreated cells (control) and peptide treated cells were captured with a JENOPTIK camera. Cell numbers (nuclei) were determined using the Pixcavator software version 5.0.
Viable B16F10-Nex2 cells (5×105)/well were distributed on a 6-well culture plate and incubated overnight at 37° C. in a humidified chamber with 5% CO2. A P1000 tip was used for wounding the cell monolayer and the image was immediately captured (0 hour) using a camera (Jenoptik) with the software Progres 2.8. After 24 hours a new image of the same field was obtained and recorded (24 hours).
Viable B16F10-Nex2 cells (3×10^5)/well were distributed in a 12-well culture plate and incubated for 4 hours at 37° C. in a humidified chamber with 5% CO2. Fresh medium containing RB10 (SEQ ID NO: 9) at different concentrations was added to the wells and incubated again for 4 hours. The monolayer wounding was performed as described above in Example 12, and images obtained accordingly. After 24 hours a new image in the same field was obtained and recorded (24 hours). […] Magnification ×100.

[7] = tested on: human cervix cancer HeLa cells; experiment: Cell migration, wound healing assay; type: cell-based; conditions: peptide 500 μM, 24 hours
Protocol: as §2

[8] = tested on: human cervix cancer SiHa cells; experiment: Cell migration, wound healing assay; type: cell-based; conditions: peptide 500 μM, 24 hours
Protocol: as §2

[9] = tested on: human glioblastoma U87 cells; experiment: Cell migration, wound healing assay; type: cell-based; conditions: peptide 500 μM, 24 hours
Protocol: as §2

Q: For QQYSKLPLT-NH2 [RB14], which “protection against lung colonization (lung nodules)” value (shortened to “protection”) [1] is on record?
A: The value was “unprotective”.

Q: And the antitumor activity (tumor cells [2])?
A: Its antitumor activity is “no antitumor activity”.

Q: Which results are given for “AIYPGNGDTSYKQKFRG-NH2 [RB8, AIYPGNGDTSYKQKFRG-NH2]”?
A: protection against lung colonization (lung nodules) [1]: unprotective; half-life [3]: < 1 h; antitumor activity (tumor cells [2]; listed as RBB): no antitumor activity; antitumor activity (tumor cells [2]; listed as SEQ ID NO: 7): no antitumor effect

Q: Which “protection” value [1] does the source give for SASQDIGNFLN-NH2 [RB12] here?
A: The value was “unprotective”.

Q: And the antitumor activity (tumor cells [2])?
A: The antitumor activity was “no antitumor activity”.

Q: For “CARGETARATFAYWGQG (Sequence of CDR H3 from RebMab 200 (huMX35), obtainable by a known method) [RB10a]”, which “adherence at peptide concentration of 1 mM (not suspended by trypsin/EDTA)” value (tumor cells [4]; 1 mM peptide) is on record?
A: The value was “hyper-adherence”.

Q: What about the “adherence of tumor cells to the substrate” value (tumor cells [4]; 96-well plates, RPMI 10% FCS, seen in B16F10-Nex2.1, U87MG, A5028 melanoma, SKBR3, SiHa, HCT cells) of the same compound?
A: Its value is “dose dependent increase of adherence”.

Q: What about the trypsin/EDTA-resistant cell adherence [5] of the same compound?
A: Its trypsin/EDTA-resistant cell adherence is “high trypsin/EDTA-resistant cell adherence”.

Q: What about the antitumor activity (tumor cells [2]) of the same compound?
A: Its antitumor activity is “antitumor effects”.

Q: What does the source list for `C[C@H](NC(=O)[C@H](CCCNC(=N)N)NC(=O)[C@H](C)NC(=O)[C@@H](NC(=O)[C@H](CCC(=O)O)NC(=O)CNC(=O)[C@H](CCCNC(=N)N)NC(=O)[C@@H](C)NC(=O)[C@@H](N)CS)[C@@H](C)O)C(=O)N[C@H](C(=O)N[C@@H](Cc1ccccc1)C(=O)N[C@@H](C)C(=O)N[C@@H](Cc1ccc(O)cc1)C(=O)N[C@@H](Cc1c[nH]c2ccccc12)C(=O)NCC(=O)N[C@@H](CCC(N)=O)C(=O)NCC(N)=O)[C@@H](C)O` [RB10 M3, C(dA)RGETARATFAYWGQG-NH2] (H-C[dA]RGETARATFAYWGQG-NH2; N-terminus assumed)?
A: inhibition of cell migration (words) [6]: complete inhibition; inhibition of cell migration (words) ([6]; listed as RB10M3): Total inhibition; inhibition of cell migration [7]: almost complete inhibition; inhibition of cell migration ([7]; listed as RB10M3): complete or almost complete inhibition; inhibition of cell migration [8]: almost complete inhibition; inhibition of cell migration ([8]; listed as RB10M3): complete or almost complete inhibition; inhibition of cell migration [9]: partial inhibition; inhibition of cell migration ([9]; listed as RB10M3): partial migration inhibition

Q: Which results are given for YTSSLYS-NH2 [RB13]?
A: protection against lung colonization (lung nodules) [1]: unprotective; antitumor activity (tumor cells [2]): no antitumor activity

Q: For GYTFTGYNIH-NH2 [RB11], which “protection” value [1] is on record?
A: Its value is “unprotective”.

Q: What about the antitumor activity (tumor cells [2]) of the same compound?
A: The antitumor activity was “no antitumor activity”.
